What is called LC50 is the concentration lethal to half of the exposed cells or organisms.

The first assay concerns Hep3B cells (hepatocellular carcinoma cell line). The assay is described as follows: In vitro MTS cell viability assay (NCI-60 methodology), Hep3B. It is filed as cell-based. The conditions noted are these: Homo sapiens, 48 h, Table 6, MTS, 2 days drug incubation, 50% reduction vs time zero, read-out: Hep3B LC50. The gist of the method: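 Hep3B cells given five 2-fold dilutions of compound for 2 days, with viability by MTS measured at time zero and at end. LC50 is the concentration giving a 50% fall in viable cells relative to the start of treatment, per NCI-60 formula.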
(In general: Formazan colour is commonly taken as a measure of viable cells.)
As for `CCCOc1ccc(-c2nc(NC(=O)c3ccc([N+](=O)[O-])s3)c3cnn(-c4ccc(F)cc4)c3n2)cc1` [Compound 6-132], the LC50 was found to be 430 nM.

For the molecule `O=C(Nc1nc(-c2ccc(OCCO)nc2)nc2c1cnn2-c1ccc(F)cc1)c1ccc([N+](=O)[O-])s1` [Compound 6-134, N-(1-(4-fluorophenyl)-6-(6-(2-hydroxyethoxy)pyridin-3-yl)-1H-pyrazolo[3,4,d]pyrimidin-4-yl)-5-nitrothiophene-2-carboxamide], the LC50 stood at 220 nM.

Take `CCOCCOc1ccc(-c2nc(NC(=O)c3ccc([N+](=O)[O-])s3)c3cnn(-c4ccc(F)cc4)c3n2)cn1` [Compound 6-136, N-(6-(6-(2-ethoxyethoxy)pyridin-3-yl)-1-(4-fluorophenyl)-1H-pyrazolo[3,4-d]pyrimidin-4-yl)-5-nitrothiophene-2-carboxamide]: the LC50 was 260 nM.

In the case of `CCOCCOCCOc1ccc(-c2nc(NC(=O)c3ccc([N+](=O)[O-])s3)c3cnn(-c4ccc(F)cc4)c3n2)cn1` [Compound 6-137, N-(6-(6-(2-(2-ethoxyethoxy)ethoxy)pyridin-3-yl)-1-(4-fluorophenyl)-1H-pyrazolo[3,4-d]pyrimidin-4-yl)-5-nitrothiophene-2-carboxamide], the LC50 stood at 180 nM.

With `COCCOc1ccc(-c2nc(NC(=O)c3ccc([N+](=O)[O-])s3)c3cnn(-c4ccc(F)cc4)c3n2)c(F)c1` [Compound 6-138, N-(6-(2-fluoro-4-(2-methoxyethoxy)phenyl)-1-(4-fluorophenyl)-1H-pyrazolo[3,4,d]pyrimidin-4-yl)-5-nitrothiophene-2-carboxamide], the LC50 is more than 1250 nM.

As to `CCOCCOCCOc1cc(C)c(-c2nc(NC(=O)c3ccc([N+](=O)[O-])s3)c3cnn(-c4ccc(F)cc4)c3n2)cn1` [Compound 6-139, N-(6-(6-(2-(2-ethoxyethoxy)ethoxy)-4-methylpyridin-3-yl)-1-(4-fluorophenyl)-1H-pyrazolo[3,4-d]pyrimidin-4-yl)-5-nitrothiophene-2-carboxamide], the LC50 came to 210 nM.

In the case of `CCOCCOCCOc1cc(Cl)ccc1-c1nc(NC(=O)c2ccc([N+](=O)[O-])s2)c2cnn(-c3ccc(F)cc3)c2n1` [Compound 6-140, N-(6-(4-chloro-2-(2-(2-ethoxyethoxy)ethoxy)phenyl)-1-(4-fluorophenyl)-1H-pyrazolo[3,4-d]pyrimidin-4-yl)-5-nitrothiophene-2-carboxamide], the LC50 is 4830 nM.

On to `O=C(Nc1nc(-c2ccc(N3CCOCC3)nc2)nc2c1cnn2-c1ccc(F)cc1)c1ccc([N+](=O)[O-])s1` [Compound 6-141, N-(1-(4-fluorophenyl)-6-(6-morpholinopyridin-3-yl)-1H-pyrazolo[3,4-d]pyrimidin-4-yl)-5-nitrothiophene-2-carboxamide], for which the LC50 turned out to be 420 nM.

In the case of `CC1CC=C(c2nc(NC(=O)c3ccc([N+](=O)[O-])s3)c3cnn(-c4ccc(F)cc4)c3n2)CC1` (centres unmarked) [Compound 6-142], the 50% lethal concentration (LC50) came to 740 nM.

In the case of `CC1CCC(c2nc(NC(=O)c3ccc([N+](=O)[O-])s3)c3cnn(-c4ccc(F)cc4)c3n2)CC1` (centres unmarked) [Compound 6-143, N-(1-(4-fluorophenyl)-6-(4-methylcyclohexyl)-1H-pyrazolo[3,4-d]pyrimidin-4-yl)-5-nitrothiophene-2-carboxamide], the LC50 is 1020 nM.

Take `CC1(C)CC=C(c2nc(NC(=O)c3ccc([N+](=O)[O-])s3)c3cnn(-c4ccc(F)cc4)c3n2)CC1` [Compound 6-144, N-(6-(4,4-dimethylcyclohex-1-en-1-yl)-1-(4-fluorophenyl)-1H-pyrazolo[3,4-d]pyrimidin-4-yl)-5-nitrothiophene-2-carboxamide]: the LC50 came to 550 nM.

`CC1(C)CCC(c2nc(NC(=O)c3ccc([N+](=O)[O-])s3)c3cnn(-c4ccc(F)cc4)c3n2)CC1` [Compound 6-145, N-(6-(4,4-dimethylcyclohexyl)-1-(4-fluorophenyl)-1H-pyrazolo[3,4-d]pyrimidin-4-yl)-5-nitrothiophene-2-carboxamide]: the LC50 was found to be 890 nM.

Still in this assay, the particulars now being: Homo sapiens, 48 h, Table 7, MTS, 2 days drug incubation, 50% reduction vs time zero, read-out: Hep3B LC50.
For the molecule `O=C(Nc1nc(-c2ccc(F)nc2)nc2c1cnn2-c1ccc(C(F)(F)F)cn1)c1ccc([N+](=O)[O-])s1` [Compound 7-2, N-(6-(6-fluoropyridin-3-yl)-1-(5-(trifluoromethyl)pyridin-2-yl)-1H-pyrazolo[3,4,d]pyrimidin-4-yl)-5-nitrothiophene-2-carboxamide], the LC50 turned out to be 150 nM.

In the case of `O=C(Nc1nc(-c2ccc(C(F)(F)F)cc2)nc2c1cnn2-c1ccc(C(F)(F)F)cn1)c1ccc([N+](=O)[O-])s1` [Compound 7-4, 5-nitro-N-(6-(4-(trifluoromethyl)phenyl)-1-(5-(trifluoromethyl)pyridin-2-yl)-1H-pyrazolo[3,4-d]pyrimidin-4-yl)thiophene-2-carboxamide], the LC50 was 220 nM.

For `O=C(Nc1nc(-c2ccc(OC(F)(F)F)cc2)nc2c1cnn2-c1ccc(C(F)(F)F)cn1)c1ccc([N+](=O)[O-])s1` [Compound 7-5, 5-nitro-N-(6-(4-(trifluoromethoxy)phenyl)-1-(5-(trifluoromethyl)pyridin-2-yl)-1H-pyrazolo[3,4-d]pyrimidin-4-yl)thiophene-2-carboxamide], the LC50 came to 310 nM.

Regarding `O=C(Nc1nc(-c2ccc(F)cc2F)nc2c1cnn2-c1ccc(C(F)(F)F)cn1)c1ccc([N+](=O)[O-])s1` [Compound 7-6], the 50% lethal concentration (LC50) was determined as 150 nM.

With `CCOCCOCCOc1ccc(-c2nc(NC(=O)c3ccc([N+](=O)[O-])s3)c3cnn(-c4ccc(C(F)(F)F)cn4)c3n2)cn1` [Compound 7-7, N-(6-(6-(2-(2-ethoxyethoxy)ethoxy)pyridin-3-yl)-1-(5-(trifluoromethyl)pyridin-2-yl)-1H-pyrazolo[3,4-d]pyrimidin-4-yl)-5-nitrothiophene-2-carboxamide], the LC50 was 500 nM.

For the molecule `O=C(Nc1nc(-c2ccc(F)cc2)nc2c1cnn2-c1ccccn1)c1ccc([N+](=O)[O-])s1` [Compound 7-8, N-(6-(4-fluorophenyl)-1-(pyridin-2-yl)-1H-pyrazolo[3,4-d]pyrimidin-4-yl)-5-nitrothiophene-2-carboxamide], the LC50 was determined as 580 nM.

Regarding `O=C(Nc1nc(-c2ccc(F)cc2)nc2c1cnn2-c1ccc(Cl)cc1Cl)c1ccc([N+](=O)[O-])s1` [Compound 7-9], the LC50 stood at 370 nM.

With `O=C(Nc1nc(-c2ccc(F)nc2)nc2c1cnn2-c1ccc(Cl)cc1Cl)c1ccc([N+](=O)[O-])s1` [Compound 7-10], the LC50 was more than 1250 nM.

`O=C(Nc1nc(N2CCC[C@H]2CO)nc2c1cnn2-c1ccc(Cl)c(Cl)c1)c1ccc([N+](=O)[O-])s1` [Compound 7-11, (S)—N-(1-(3,4-dichlorophenyl)-6-(2-(hydroxymethyl)pyrrolidin-1-yl)-1H-pyrazolo[3,4-d]pyrimidin-4-yl)-5-nitrothiophene-2-carboxamide]: the LC50 is 510 nM.

Take `O=C(Nc1nc(-c2ccc(F)cc2)nc2c1cnn2-c1ccc(F)cc1F)c1ccc([N+](=O)[O-])s1` [Compound 7-12]: the LC50 was determined as 430 nM.

As to `O=C(Nc1nc(-c2ccc(F)nc2)nc2c1cnn2-c1ccc(F)cc1F)c1ccc([N+](=O)[O-])s1` [Compound 7-13], the LC50 amounted to 130 nM.

As for `O=C(Nc1nc(-c2ccc(Cl)cc2)nc2c1cnn2-c1ccc(F)cc1F)c1ccc([N+](=O)[O-])s1` [Compound 7-14], the LC50 came to 580 nM.

In the case of `O=C(Nc1nc(-c2ccc(Cl)nc2)nc2c1cnn2Cc1ccccc1)c1ccc([N+](=O)[O-])s1` [Compound 7-15, N-(1-benzyl-6-(6-chloropyridin-3-yl)-1H-pyrazolo[3,4-d]pyrimidin-4-yl)-5-nitrothiophene-2-carboxamide], the LC50 stood at 1200 nM.

As to `O=C(Nc1nc(-c2ccc(Cl)cc2)nc2c1cnn2Cc1ccccc1)c1ccc([N+](=O)[O-])s1` [Compound 7-16, N-(1-benzyl-6-(4-chlorophenyl)-1H-pyrazolo[3,4-d]pyrimidin-4-yl)-5-nitrothiophene-2-carboxamide], the LC50 was more than 1250 nM.

With `Cc1ccc(-c2nc(NC(=O)c3ccc([N+](=O)[O-])s3)c3cnn(Cc4ccccc4)c3n2)cn1` [Compound 7-17, N-(1-benzyl-6-(6-methylpyridin-3-yl)-1H-pyrazolo[3,4-d]pyrimidin-4-yl)-5-nitrothiophene-2-carboxamide], the LC50 is more than 1250 nM.

As to `COc1ccc(-c2nc(NC(=O)c3ccc([N+](=O)[O-])s3)c3cnn(Cc4cccc(F)c4)c3n2)cn1` [Compound 7-18], the LC50 was more than 1250 nM.

On to `C=CC(=O)Nc1ccc(-n2ncc3c(NC(=O)c4ccc([N+](=O)[O-])s4)nc(-c4ccc(F)cc4)nc32)cc1` [Compound 7-19, N-(1-(4-acrylamidophenyl)-6-(4-fluorophenyl)-1H-pyrazolo[3,4-d]pyrimidin-4-yl)-5-nitrothiophene-2-carboxamide], for which the LC50 is 190 nM.

Staying with this assay, now noted: Homo sapiens, 48 h, Table 8, MTS, 2 days drug incubation, 50% reduction vs time zero, read-out: Hep3B LC50.
As to `CC(C)N1CC[C@H](n2ncc3c(NC(=O)c4ccc([N+](=O)[O-])s4)nc(-c4ccc(F)nc4)nc32)C1` [Compound 8-1, (S)—N-(6-(6-fluoropyridin-3-yl)-1-(1-isopropylpyrrolidin-3-yl)-1H-pyrazolo[3,4-d]pyrimidin-4-yl)-5-nitrothiophene-2-carboxamide], the 50% lethal concentration (LC50) was more than 3000 nM.

In the case of `CC(=O)N1CC[C@H](n2ncc3c(NC(=O)c4ccc([N+](=O)[O-])s4)nc(-c4ccc(F)nc4)nc32)C1` [Compound 8-2, (S)—N-(1-(1-acetylpyrrolidin-3-yl)-6-(6-fluoropyridin-3-yl)-1H-pyrazolo[3,4-d]pyrimidin-4-yl)-5-nitrothiophene-2-carboxamide], the LC50 was more than 3000 nM.

In the case of `C=CC(=O)N1CC[C@H](n2ncc3c(NC(=O)c4ccc([N+](=O)[O-])s4)nc(-c4ccc(F)nc4)nc32)C1` [Compound 8-3, (S)—N-(1-(1-acryloylpyrrolidin-3-yl)-6-(6-fluoropyridin-3-yl)-1H-pyrazolo[3,4-d]pyrimidin-4-yl)-5-nitrothiophene-2-carboxamide], the LC50 is more than 3000 nM.

The values are drawn from patent publication US20240150356A1, “Pyrimidine amide compounds and use thereof” (ALPHALA CO., LTD., priority 2019, published 2024).
